{"source": "patent US11311609B2", "about": "“Regulating chimeric antigen receptors” (DANA-FARBER CANCER INSTITUTE, INC., priority 2017, dated 2022)", "biological_target": "T1, FKBP* (Homo sapiens, UniProt P62942, F37V)", "T1 construct": "HA; expressed in transfected cells; host or cells: 293FT cells (CRBN-WT or CRBN-/-)", "T1 sequence (P62942 whole entry F37V)": "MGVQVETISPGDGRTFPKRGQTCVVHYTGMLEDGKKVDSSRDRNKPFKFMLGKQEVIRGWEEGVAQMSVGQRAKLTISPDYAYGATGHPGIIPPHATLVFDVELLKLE", "test": "Immunoblot of FKBP* degradation in 293FT cells (CRBN-WT or CRBN-/-)", "assay_type": "cell-based", "conditions": "4 hours", "procedure": "FIG. 6 is an immunoblot of cells treated with bi-functional molecules described in the present invention. As described in Example 3, 293FT cells (CRBN-WT or CRBN−/−) expressing either HA-tagged FKBP12WT or FKBP* (also referred to as dFKBP12* herein) were treated with indicated concentrations of dFKBP7 for 4 hours.\nFIG. 8 is an immunoblot of cells treated with heterobifunctional compounds described in the present invention. Isogenic 293FT cells (CRBN-WT or CRBN−/−) expressing either FKBP12WT or FKBP* were treated with 100 nM of either dFKBP7 or dFKBP13 for 4 hours (Example 5).\nFIG. 9 is an immunoblot of cells treated with heterobifunctional compounds described in the present invention. Isogenic 293FT cells (CRBN-WT or CRBN−/−) expressing HA-tagged FKBP* were treated with the indicated dose of dFKBP13 for 4 hours (Example 6).\nFIG. 11 is an immunoblot of cells treated with heterobifunctional compounds described in the present invention. 293FT cells (CRBN-WT) expressing FKBP* were pretreated with 1 uM Carfilzomib (proteasome inhibitor), 0.5 uM MLN4924 (neddylation inhibitor), and 10 uM Lenalidomide (CRBN binding ligand) for two hours prior to a 4 hour treatment with dFKBP13 (Example 8). Degradation of HA-tagged FKBP* by dFKBP13 was rescued by the proteasome inhibitor Carfilzomib, establishing a requirement for proteasome function.\nThe dTAG is predicated on the selectivity of FKBP* specific ligands over endogenous, wild type FKBP. In 293T cells expressing wild type FKBP12 or FKBP*, dFKBP7 induces targeted degradation only in FKBP* expressing cells. An immunoblot of cells treated with bi-functional molecules described in the present invention was performed. 293FT cells (CRBN-WT or CRBN−/−) expressing either HA-tagged FKBP12WT or FKBP* were treated with indicated concentrations of dFKBP7 for 4 hours.\nIn 293T cells expressing wild type FKBP12 or FKBP*, treatment with dFKBP7 and dFKBP13 induces targeted degradation only in FKBP* expressing cells. Isogenic 293FT cells (CRBN-WT or CRBN−/−) were engineered to express either FKBP12WT or FKBP*. Cells were treated with 100 nM of either dFKBP7 or dFKBP13 for 4 hours before lysates were prepared for western immunoblot analysis.\nIn an effort to define the optimal concentration of dFKB13 heterobifunctional compounds to induce degradation of FKBP*, degradation was measured upon treatment with increasing concentrations of dFKBP13. Isogenic 293FT cells (CRBN-WT or CRBN−/−) were engineered to expressed HA-tagged FKBP*. Cells were treated with the indicated dose of dFKBP13 for 4 hours before lysates were prepared for western immunoblot analysis.\n293FT cells (CRBN-WT) were engineered to express FKBP*. Cells were pretreated with 1 uM Carfilzomib (proteasome inhibitor), 0.5 uM MLN4924 (neddylation inhibitor), and 10 uM Lenalidomide (CRBN binding ligand) for two hours prior to a 4-hour treatment with dFKBP13. Lysates were prepared and western immunoblot analysis performed. Degradation of HA-tagged FKBP* by dFKBP13 was rescued by the proteasome inhibitor Carfilzomib, establishing a requirement for proteasome function.", "data": [{"smiles": "CC[C@H](C(=O)N1CCCC[C@H]1C(=O)O[C@H](CCc1ccc(OC)c(OC)c1)c1cccc(OCC(=O)NCCCOCCOCCOCCCNC(=O)COc2cccc3c2C(=O)N(C2CCC(=O)NC2=O)C3=O)c1)c1cc(OC)c(OC)c(OC)c1", "note": "(some centres unmarked) [dFKBP7]", "values": [{"measurement": "Degradation of HA-tagged FKBP* (immunoblot)", "setting": "293FT cells CRBN-WT or CRBN-/-, indicated concentrations", "value": "CRBN-dependent degradation of FKBP*"}, {"measurement": "Degradation of FKBP* (immunoblot)", "setting": "isogenic 293FT cells CRBN-WT or CRBN-/-, 100 nM", "value": "CRBN-dependent degradation of FKBP*"}]}]}
